Laboratory results published in PMC10739246 (ACS Bio & Med Chem Au, 2023).
Converted amounts (≈) assume the structure as drawn. Read-outs that look alike come from different tables or passages of the source. Residues, ends and D or L forms follow the SMILES beside them.

Legend:
B. subtilis DSM402 [1] = assay: Bacterial cytological profiling (BCP) in B. subtilis DSM402; assay type: cell-based, Bacillus subtilis; details: for DAPI / phase contrast / FM4-64: 1x MIC, 1 h; for DAPI: DNA condensation; for phase contrast: indicates cell lysis; for FM4-64: membrane stain; for gyrase inhibition / membrane damage: interpretation of BCP in B. subtilis
MreB in B. subtilis MW10 = assay: MreB mobility assay; assay type: cell-based, Bacillus subtilis; details: B. subtilis MW10, 1 h of antibiotic exposure
Method: MreB is an actin homologue that forms filamentous structures along the lateral axis of the cell. It moves along the length of the cells in a spiraling pattern thereby driving lateral peptidoglycan synthesis.[36],[37] MreB mobility is sensitive to inhibition of peptidoglycan synthesis and so far, every cell wall synthesis inhibitor we tested abolished MreB movement (see Figure S70 for examples).
Expression of msfGFP-MreB was induced with 0.3% xylose. Pictures were taken after 1 h of antibiotic exposure. Two images of the same field of view were recorded 30 s apart and overlaid in ImageJ to visualize MreB mobility. A perfect overlap (yellow) indicates stalled MreB movement, while distinct red and green foci are indicative of MreB mobility. Scale bar 2 μm.
Fig. S70: MreB motility in B. subtilis MW10 after treatment with different cell wall synthesis inhibitors. Expression of GFP-MreB was induced with 0.3% xylose. Cells were treated with 1x […]
Two images of the same field of view were recorded 30 sec apart and overlaid in ImageJ to visualize MreB mobility. A perfect overlap (yellow) indicates stalled MreB movement while distinct red and green spots are indicative of MreB mobility. Scale bar 2 µm.

[2] = tested on: MurG in B. subtilis TNVS175; assay: MurG localization; assay type: cell-based, Bacillus subtilis; details: 1x MIC; 30 min (vancomycin) or 1 h;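 further: normal MurG forms small membrane spots and peptidoglycan inhibition gives large clusters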
[3] = tested on: cell wall biosynthesis in B. subtilis DSM402; assay: Summary of cell wall synthesis experiments; assay type: cell-based, Bacillus subtilis
B. subtilis DSM402 [4] = details: for μM (concentration used, 1x MIC): Table 2, cells treated with 1x MIC
B. subtilis DSM402 [5] = assay: Peptidoglycan integrity assay (acetic acid/methanol fixation); details: 1x MIC; 30 min (cell wall inhibitors) or 60 min
E. coli (W3110) = assay: MIC, microdilution, E. coli W3110; assay type: cell-based, Escherichia coli
[6] = tested on: norfloxacin-resistant clinical isolate of E. coli; assay: MIC, microdilution, norfloxacin-resistant clinical isolate of E. coli; assay type: cell-based, Escherichia coli; details: read-out: MIC E. coli (norfloxacin-resistant strain)
P. aeruginosa (PAO1) = assay: MIC, microdilution, P. aeruginosa PAO1; assay type: cell-based, Pseudomonas aeruginosa
[7] = tested on: K. pneumoniae (ATCC 10031); assay: MIC, K. pneumoniae ATCC 10031; assay type: cell-based, Klebsiella pneumoniae
S. aureus (CCUG1800T) = assay: MIC, microdilution, S. aureus CCUG1800T; assay type: cell-based, Staphylococcus aureus
[8] = tested on: S. aureus (ATCC 43300) MRSA; assay: MIC, microdilution, MRSA ATCC 43300; assay type: cell-based, Staphylococcus aureus; details: for MIC: norfloxacin-resistant strain
E. faecalis (ATCC 19433) = assay: MIC, E. faecalis ATCC 19433; assay type: cell-based, Enterococcus faecalis
[9] = tested on: M. tuberculosis (MC26020); assay: microbe, parasite or virus in culture; assay type: cell-based, Mycobacterium tuberculosis; details: for MIC: Mycobacterium tuberculosis, read-out: MIC M. tuberculosis (MC26020)
E. coli W3110 = assay: Bacterial cytological profiling (BCP) in E. coli W3110; assay type: cell-based, Escherichia coli
E. coli BCB472 = assay: GlpT localization (inner membrane) in E. coli BCB472; details: 1x MIC, 1 h; GFP-tagged membrane protein
[10] = Escherichia coli, Gram-negative strain, average of duplicate experiments, read-out: MIC E. coli (W3110)
[11] = Klebsiella pneumoniae, ATCC10031
[12] = Enterococcus faecalis, ATCC19433
[13] = interpretation of BCP in E. coli
[14] = Gram-negative strain, average of duplicate experiments, read-out: MIC E. coli (W3110)
[15] = norfloxacin-resistant clinical isolate
[16] = read-out: MIC S. aureus (CCUG1800T)

CCCCCCCCCC(=O)N[C@@H](Cc1c[nH]c2ccccc12)C(=O)N[C@H](CC(N)=O)C(=O)N[C@@H](CC(=O)O)C(=O)N[C@@H]1C(=O)NCC(=O)N[C@@H](CCCN)C(=O)N[C@@H](CC(=O)O)C(=O)N[C@H](C)C(=O)N[C@@H](CC(=O)O)C(=O)NCC(=O)N[C@H](CO)C(=O)N[C@@H]([C@H](C)CC(=O)O)C(=O)N[C@@H](CC(=O)c2ccccc2N)C(=O)O[C@@H]1C [Dap, daptomycin, reference compound]
DAPI (B. subtilis DSM402 [1]): regular | phase contrast (B. subtilis DSM402 [1]): dark | FM4-64 (B. subtilis DSM402 [1]): patchy | gyrase inhibition (B. subtilis DSM402 [1]): no | membrane damage (B. subtilis DSM402 [1]): yes

N[C@@H]1CON=C1O [D-Cyc, D-cycloserine]
MreB mobility (MreB in B. subtilis MW10): static with foci | protein localization MurG [2]: patchy | CWB inhibited? [3]: yes | μM (concentration used, 1x MIC) (B. subtilis DSM402 [4]): 293.85 µM | PG integrity (B. subtilis DSM402 [5]): compromised

CCn1cc(C(=O)O)c(=O)c2cc(F)c(N3CCN(C(=O)Cn4ccnc4)CC3)cc21 [8a]
MIC (E. coli (W3110); [10]): 4.67 µM (≈ 2 µg/mL) | MIC (E. coli (W3110); Escherichia coli, Tab. S10, topoisomerase IV side, strain not given, values equal E. coli W3110 of Table 1, read-out: MIC): 4.67 µM (≈ 2 µg/mL) | MIC ([6]; Escherichia coli): 74.9 µM (≈ 32 µg/mL) | MIC (P. aeruginosa (PAO1); Pseudomonas aeruginosa, PAO1): 150 µM (≈ 64 µg/mL) | MIC [7, 11]: 9.35 µM (≈ 4 µg/mL) | MIC (S. aureus (CCUG1800T); Staphylococcus aureus, read-out: MIC S. aureus (CCUG1800T)): 2.33 µM (≈ 0.996 µg/mL) | MIC ([8]; Staphylococcus aureus): 299 µM (≈ 128 µg/mL) | MIC (E. faecalis (ATCC 19433); [12]): 14 µM (≈ 6 µg/mL) | MIC [9]: 2.33 µM (≈ 0.996 µg/mL)

polymyxin B [PolB, reference compound]
concentration (MIC against E. coli W3110) (E. coli (W3110); Tab. S11, concentrations represent MIC values): 0.83 µM | DAPI (E. coli W3110; 1x MIC, 1 h, DNA condensation): dispersed | phase contrast (E. coli W3110; 1x MIC, 1 h, indicates cell lysis): dark | FM4-64 (E. coli W3110; 1x MIC, 1 h, membrane stain): patchy | gyrase inhibition (E. coli W3110; [13]): no | membrane damage (E. coli W3110; [13]): yes | GlpT (E. coli BCB472): dispersed

C[C@@H]1O[C@@H]1P(=O)(O)O [Fos, fosfomycin]
MreB mobility (MreB in B. subtilis MW10): static with foci | protein localization MurG [2]: patchy/dispersed | CWB inhibited? [3]: yes | μM (concentration used, 1x MIC) (B. subtilis DSM402 [4]): 72.43 µM | PG integrity (B. subtilis DSM402 [5]): compromised

CCn1cc(C(=O)O)c(=O)c2cc(F)c(N3CCN(C(=O)CNc4ccc(Br)cc4)CC3)cc21 [4b]
MIC (E. coli (W3110); [10]): 30.1 µM (≈ 16 µg/mL) | MIC ([6]; Escherichia coli): > 964 µM | MIC (P. aeruginosa (PAO1); Pseudomonas aeruginosa, PAO1): 723 µM (≈ 384 µg/mL) | MIC [7, 11]: > 964 µM | MIC (S. aureus (CCUG1800T); Staphylococcus aureus; Tab. S10, DNA gyrase side; strain not given, values equal S. aureus CCUG1800T of Table 1; read-out: MIC): 1.88 µM (≈ 0.999 µg/mL) | MIC (S. aureus (CCUG1800T); Staphylococcus aureus; read-out: MIC S. aureus (CCUG1800T)): 1.88 µM (≈ 0.999 µg/mL) | MIC ([8]; Staphylococcus aureus): > 964 µM | MIC (E. faecalis (ATCC 19433); [12]): 7.52 µM (≈ 4 µg/mL) | MIC [9]: 3.76 µM (≈ 2 µg/mL)

CCn1cc(C(=O)O)c(=O)c2cc(F)c(N3CCN(CN4C(=O)C(=O)c5cc(OC)ccc54)CC3)cc21 [20c]
MIC (E. coli (W3110); [14]): 4.91 µM (≈ 2.5 µg/mL) | MIC [6, 15]: 1006.88 µM (≈ 512 µg/mL) | MIC (P. aeruginosa (PAO1)): 62.93 µM (≈ 32 µg/mL) | MIC [7]: 503.44 µM (≈ 256 µg/mL) | MIC (S. aureus (CCUG1800T); [16]): 31.46 µM (≈ 16 µg/mL) | fold more active than norfloxacin [8]: 6.3 fold | MIC [8]: 15.73 µM (≈ 8 µg/mL) | MIC (E. faecalis (ATCC 19433)): 251.72 µM (≈ 128 µg/mL) | MIC M. tuberculosis (MC26020) [9]: >1006.88 µM

tunicamycin
MreB mobility (MreB in B. subtilis MW10): static | protein localization MurG [2]: patchy | CWB inhibited? [3]: yes | μM (concentration used, 1x MIC) (B. subtilis DSM402 [4]): 19.58 µM | PG integrity (B. subtilis DSM402 [5]): compromised

CC(C)C[C@@H]1NC(=O)[C@@H](Cc2ccccc2)NC(=O)[C@H](CCN)NC(=O)[C@@H](NC(=O)[C@H](CCN)NC(=O)[C@@H](N)[C@@H](C)O)CCNC(=O)[C@H]([C@@H](C)O)NC(=O)[C@H](CCN)NC(=O)[C@H](CCN)NC1=O [PolBN, polymyxin B nonapeptide, reference compound] (HELM PEPTIDE1{T.[Dab].[Dab].[Dab].[dF].L.[Dab].[Dab].T}$PEPTIDE1,PEPTIDE1,3:R3-9:R2$$$V2.0; N-terminus assumed)
FICI (fractional inhibitory concentration index) (E. coli): 0.0234 | MICC (MIC of the test compound alone) (E. coli): 128 µg/mL | FICC (fractional inhibitory concentration of the test compound) (E. coli; MICCcheckerboard/MICC): 0.0078 | MICCcheckerboard (MIC of the test compound in checkerboard assay) (E. coli; combined with mupirocin): 1 µg/mL | FICM (MICMcheckerboard/MICM) (E. coli; mupirocin alone 64 µg/mL): 0.0156 | MICMcheckerboard (MIC of mupirocin in checkerboard assay) (E. coli; mupirocin combined with the compound of the line): 1 µg/mL

NNC(=O)c1ccncc1 [INH, isoniazid, reference compound]
MIC [9]: 1.82 µM (≈ 0.25 µg/mL)

CCn1cc(C(=O)O)c(=O)c2cc(F)c(N3CCN(CN4C(=O)C(=O)c5cc(C)ccc54)CC3)cc21 [20b]
MIC (E. coli (W3110); [14]): 5.07 µM (≈ 2.5 µg/mL) | MIC [6, 15]: >1039.59 µM | MIC (P. aeruginosa (PAO1)): 16.24 µM (≈ 8 µg/mL) | MIC [7]: 3.04 µM (≈ 1.5 µg/mL) | MIC (S. aureus (CCUG1800T); [16]): 32.48 µM (≈ 16 µg/mL) | MIC [8]: 259.89 µM (≈ 128 µg/mL) | MIC (E. faecalis (ATCC 19433)): 6.09 µM (≈ 3 µg/mL) | MIC M. tuberculosis (MC26020) [9]: 129.94 µM (≈ 64 µg/mL)

CCn1cc(C(=O)O)c(=O)c2cc(F)c(N3CCN(C(=O)CNNC(=O)c4ccncc4)CC3)cc21 [compound 16]
MIC (E. coli (W3110); [14]): 64.45 µM (≈ 32 µg/mL) | MIC [6, 15]: 32.22 µM (≈ 16 µg/mL) | MIC (P. aeruginosa (PAO1)): 515.61 µM (≈ 256 µg/mL) | MIC [7]: 12.08 µM (≈ 6 µg/mL) | MIC (S. aureus (CCUG1800T); Tab. S10, DNA gyrase side; strain not given, values equal S. aureus CCUG1800T of Table 1; read-out: MIC): 2.01 µM (≈ 0.998 µg/mL) | MIC (S. aureus (CCUG1800T); [16]): 2.01 µM (≈ 0.998 µg/mL) | MIC [8]: 64.45 µM (≈ 32 µg/mL) | MIC (E. faecalis (ATCC 19433)): 2.01 µM (≈ 0.998 µg/mL) | MIC M. tuberculosis (MC26020) [9]: 1 µM (≈ 0.496 µg/mL) | DAPI (B. subtilis DSM402 [1]): condensed | phase contrast (B. subtilis DSM402 [1]): dark | FM4-64 (B. subtilis DSM402 [1]): patchy | gyrase inhibition (B. subtilis DSM402 [1]): yes | membrane damage (B. subtilis DSM402 [1]): yes | CWB inhibited? [3]: no | concentration (MIC against B. subtilis DSM402) (B. subtilis DSM402 [4]; Tab. S13, concentrations represent MIC values): 2.01 µM | μM (concentration used, 1x MIC) (B. subtilis DSM402 [4]): 2.01 µM | PG integrity (B. subtilis DSM402 [5]): intact
